From BindingDB's records for patent US12209081 (Katholieke Universiteit Leuven, 2025) come the findings set out here.

For this test, the target named is Transient receptor potential cation channel subfamily M member 3 (UniProt J9SQF3). Description: Monitoring the TRPM3 Ion Channel Driven Ca2+ Uptake. As for the experimental part:
In order to monitor the inhibition of the mouse TRPM3α2 (mTRPM3) ion channel by the compounds of the invention, a cellular system making use of an mTRPM3alpha2 or hTRPM3 overexpressing cell line (flip-in HEK293) was used. The TRPM3 channel was stimulated/opened with Pregnenolone sulfate (PS) (50 μM) which results in Ca2+ influx. For mTRPM3, the intracellular Ca2+ was measured with a Calcium responsive dye. Fluor-4 AM ester (Invitrogen). Cells were cultured until a confluence of 80-90%, washed with Versene (Invitrogen) and detached from the surface by a short incubation with 0.05% Trypsin (Invitrogen). The trypsination process was stopped by the addition of complete cell culture medium (DMEM, glutamax, 10% FCS,NEAA,Pen-Strep). Cells were collected and resuspended in Krebs buffer without Calcium at RT. Prior the cell seeding (±2000 cells/well into a black, 384 well plate (Greiner)) the diluted compound was added in the assay plate, together with the PS dissolved in Krebs buffer containing Calcium. […] Directly after cell addition the plates were read on an Envision fluorescence reader (Perkin Elmer) by an Excitation of 485 nm and emission at 535 nm. Channel inhibition was calculated compared to a non-PS stimulated control versus a condition stimulated with PS (50 μM) with vehicle. The ability of the compounds of the invention to inhibit this activity was determined as: Percentage inhibition=[1-((RFU determined for sample with test compound present—RFU determined for sample with positive control inhibitor) divided by (RFU determined in the presence of vehicle—RFU determined for sample with positive control inhibitor))]*100.

Transient receptor potential cation channel subfamily M member 3, sequence (J9SQF3 whole entry): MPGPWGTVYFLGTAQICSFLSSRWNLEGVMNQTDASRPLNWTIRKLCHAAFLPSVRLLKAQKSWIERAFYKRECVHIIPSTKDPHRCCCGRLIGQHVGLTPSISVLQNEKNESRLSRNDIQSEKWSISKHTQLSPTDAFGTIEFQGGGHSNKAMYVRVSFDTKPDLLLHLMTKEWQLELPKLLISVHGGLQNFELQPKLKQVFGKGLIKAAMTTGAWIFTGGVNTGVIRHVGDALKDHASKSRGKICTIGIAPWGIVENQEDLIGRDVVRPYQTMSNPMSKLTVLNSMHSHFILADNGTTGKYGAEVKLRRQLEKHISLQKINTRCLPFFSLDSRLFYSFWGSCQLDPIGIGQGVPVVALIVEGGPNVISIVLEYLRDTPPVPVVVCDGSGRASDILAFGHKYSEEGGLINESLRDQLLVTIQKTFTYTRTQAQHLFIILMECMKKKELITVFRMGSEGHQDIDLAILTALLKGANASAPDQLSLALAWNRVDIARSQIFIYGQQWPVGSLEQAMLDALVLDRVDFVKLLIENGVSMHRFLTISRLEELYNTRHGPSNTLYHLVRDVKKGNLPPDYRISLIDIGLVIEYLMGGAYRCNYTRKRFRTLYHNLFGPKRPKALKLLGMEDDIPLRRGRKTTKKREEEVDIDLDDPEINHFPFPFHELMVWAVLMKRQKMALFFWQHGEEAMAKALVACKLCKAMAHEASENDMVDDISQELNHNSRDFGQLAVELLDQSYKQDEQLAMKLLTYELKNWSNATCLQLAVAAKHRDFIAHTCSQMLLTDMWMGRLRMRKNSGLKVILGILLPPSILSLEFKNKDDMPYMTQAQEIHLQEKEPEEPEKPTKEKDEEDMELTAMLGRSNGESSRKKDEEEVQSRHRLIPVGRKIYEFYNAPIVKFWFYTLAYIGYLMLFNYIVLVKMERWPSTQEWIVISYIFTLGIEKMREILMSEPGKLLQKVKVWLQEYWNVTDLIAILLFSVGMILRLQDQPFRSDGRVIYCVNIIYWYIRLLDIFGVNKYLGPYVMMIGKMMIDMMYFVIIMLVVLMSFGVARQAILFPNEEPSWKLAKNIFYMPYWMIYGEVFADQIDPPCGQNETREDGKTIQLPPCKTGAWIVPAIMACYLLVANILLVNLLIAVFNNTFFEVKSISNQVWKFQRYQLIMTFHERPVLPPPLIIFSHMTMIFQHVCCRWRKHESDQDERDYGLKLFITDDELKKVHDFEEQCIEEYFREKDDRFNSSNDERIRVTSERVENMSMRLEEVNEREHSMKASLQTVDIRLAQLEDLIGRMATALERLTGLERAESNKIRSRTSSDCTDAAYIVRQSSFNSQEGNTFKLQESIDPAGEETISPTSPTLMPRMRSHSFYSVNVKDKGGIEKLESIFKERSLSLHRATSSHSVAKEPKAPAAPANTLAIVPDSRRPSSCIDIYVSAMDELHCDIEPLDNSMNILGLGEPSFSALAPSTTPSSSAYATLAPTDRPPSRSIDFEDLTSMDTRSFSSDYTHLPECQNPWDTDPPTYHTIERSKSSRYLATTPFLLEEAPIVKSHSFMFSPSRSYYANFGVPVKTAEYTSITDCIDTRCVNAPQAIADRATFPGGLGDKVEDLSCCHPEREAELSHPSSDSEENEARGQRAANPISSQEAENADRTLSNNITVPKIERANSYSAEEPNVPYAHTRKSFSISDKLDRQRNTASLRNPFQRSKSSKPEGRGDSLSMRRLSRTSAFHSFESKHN

In general, IC50 refers to the point on the concentration scale where inhibition reaches its midpoint. High values mean weaker potency in that assay, low ones greater potency in that assay. Consider `Cc1oc2ccc(OCc3cccnc3C#N)cc2c1C(=O)NC1(CO)CCOCC1` [US12209081, Compound 347], for which the IC50 was less than 1000 nM.
The figure for `Cc1oc2ccc(OCc3cccnc3C(F)(F)F)cc2c1C(=O)NC1(CO)COC1` [US12209081, Compound 133] is less than 1000 nM; for `Cc1nc(C)c(COc2ccc3oc(C)c(C(=O)N[C@H](CO)C(N)=O)c3c2)s1` [US12209081, Compound 458-En-2] it is less than 1000 nM.
Next, `Cc1oc2ccc(OCc3cncc(C(F)(F)F)c3)cc2c1C(=O)N[C@H]1CCNC1` [US12209081, Compound 055]: more than 20000 nM; `Cc1oc2ccc(OCc3ccnn3CC(F)F)cc2c1C(=O)N[C@H](CO)C(N)=O` [US12209081, Compound 456-En-2]: less than 1000 nM.
The figure for `Cc1oc2ccc(OCc3cccnc3C(F)(F)F)cc2c1C(=O)Nc1cc[nH]n1` [US12209081, Compound 138] is less than 1000 nM; for `Cc1oc2ccc(OCc3cccnn3)cc2c1C(=O)NC1CCNC1=O` (stereo not drawn) [US12209081, Compound 030] it is less than 1000 nM; for `Cc1ncsc1COc1ccc2oc(C)c(C(=O)NC3(CN)CCC3)c2c1` [US12209081, Compound 137] it is less than 1000 nM.
